# Assay results: PubChem BioAssay (NCI)
#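 Each compound was tested at five concentrations against cells in 96-well plates for 48 hours. The concentration for 50% growth inhibition is given as GI50. Definition used: TGI = concentration required for complete inhibition of growth.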
# How the values were obtained:
# Test in all cases: growth of human tumour cells (NCI), 48 h
# [1] = system: 786-0 renal
# [2] = system: A498 renal
# [3] = system: A549 NSCLC
# [4] = system: ACHN renal
# [5] = system: BT-549 breast
# [6] = system: CAKI-1 renal
# [7] = system: CCRF-CEM leukemia
# [8] = system: COLO 205 colon
# [9] = system: DU-145 prostate
# [10] = system: EKVX NSCLC
# [11] = system: HCC-2998 colon
# [12] = system: HCT-116 colon
# [13] = system: HCT-15 colon
# [14] = system: HOP-62 NSCLC
# [15] = system: HOP-92 NSCLC
# [16] = system: HT29 colon
# [17] = system: IGROV1 ovarian
# [18] = system: K-562 leukemia
# [19] = system: KM12 colon
# [20] = system: LOX IMVI melanoma
# [21] = system: M14 melanoma
# [22] = system: MALME-3M melanoma
# [23] = system: MCF7 breast
# [24] = system: MDA-MB-231 breast
# [25] = system: MDA-MB-435
# [26] = system: MOLT-4 leukemia
# [27] = system: NCI-H226 lung
# [28] = system: NCI-H23 lung
# [29] = system: NCI-H460 lung
# [30] = system: NCI-H522 lung
# [31] = system: NCI/ADR-RES ovarian
# [32] = system: OVCAR-3 ovarian
# [33] = system: OVCAR-4 ovarian
# [34] = system: OVCAR-5 ovarian
# [35] = system: OVCAR-8 ovarian
# [36] = system: PC-3 prostate
# [37] = system: RXF 393 renal
# [38] = system: SF-268 CNS
# [39] = system: SF-295 CNS
# [40] = system: SF-539 CNS
# [41] = system: SK-MEL-2 melanoma
# [42] = system: SK-MEL-28 melanoma
# [43] = system: SK-MEL-5 melanoma
# [44] = system: SK-OV-3 ovarian
# [45] = system: SN12C renal
# [46] = system: SNB-19 CNS
# [47] = system: SNB-75 CNS
# [48] = system: SW-620 colon
# [49] = system: T-47D breast
# [50] = system: TK-10 renal
# [51] = system: U251 CNS
# [52] = system: UACC-257 melanoma
# [53] = system: UACC-62 melanoma
# [54] = system: UO-31 renal
# [55] = system: HL-60(TB) leukemia
# [56] = system: HS 578T breast
# [57] = system: RPMI-8226 leukemia
# [58] = system: SR leukemia
structure (smiles),measurement,setting,value
Nc1ccccc1C#Cc1ccccc1C#Cc1ccccc1N,GI50,[1],11.9 µM
same,TGI,[1],31.2 µM
same,GI50,[2],6 µM
same,TGI,[2],19.8 µM
same,GI50,[3],22.1 µM
same,TGI,[3],> 100 µM
same,GI50,[4],14 µM
same,TGI,[4],29.7 µM
same,GI50,[5],5.41 µM
same,TGI,[5],24.7 µM
same,GI50,[6],4.41 µM
same,TGI,[6],18.5 µM
same,GI50,[7],3.21 µM
same,TGI,[7],16.2 µM
same,GI50,[8],15 µM
same,TGI,[8],43.9 µM
same,GI50,[9],11.3 µM
same,TGI,[9],28.6 µM
same,GI50,[10],8.03 µM
same,TGI,[10],32.8 µM
same,GI50,[11],14 µM
same,TGI,[11],41 µM
same,GI50,[12],6.32 µM
same,TGI,[12],21.5 µM
same,GI50,[13],3.42 µM
same,TGI,[13],16.8 µM
same,GI50,[14],11 µM
same,TGI,[14],26.7 µM
same,GI50,[15],3.62 µM
same,TGI,[15],15.6 µM
same,GI50,[16],5.98 µM
same,TGI,[16],> 100 µM
same,GI50,[17],10.2 µM
same,TGI,[17],30.4 µM
same,GI50,[18],2.01 µM
same,TGI,[18],12.8 µM
same,GI50,[19],2.97 µM
same,TGI,[19],14.7 µM
same,GI50,[20],7.31 µM
same,TGI,[20],20.9 µM
same,GI50,[21],6.62 µM
same,TGI,[21],24.5 µM
same,GI50,[22],10.3 µM
same,TGI,[22],24.1 µM
same,GI50,[23],12.4 µM
same,TGI,[23],> 100 µM
same,GI50,[24],9.04 µM
same,TGI,[24],24.6 µM
same,GI50,[25],1.31 µM
same,TGI,[25],4.39 µM
same,GI50,[26],2.12 µM
same,TGI,[26],11.9 µM
same,GI50,[27],12.7 µM
same,TGI,[27],31.1 µM
same,GI50,[28],19.3 µM
same,TGI,[28],70.8 µM
same,GI50,[29],5.89 µM
same,TGI,[29],> 100 µM
same,GI50,[30],3.17 µM
same,TGI,[30],11.5 µM
same,GI50,[31],13 µM
same,TGI,[31],73.3 µM
same,GI50,[32],2.22 µM
same,TGI,[32],8.24 µM
same,GI50,[33],23.3 µM
same,TGI,[33],80.9 µM
same,GI50,[34],27.6 µM
same,TGI,[34],67.4 µM
same,GI50,[35],20.7 µM
same,TGI,[35],49.4 µM
same,GI50,[36],5.31 µM
same,TGI,[36],23.3 µM
same,GI50,[37],9.74 µM
same,TGI,[37],32 µM
same,GI50,[38],10.6 µM
same,TGI,[38],37 µM
same,GI50,[39],3.13 µM
same,TGI,[39],10.5 µM
same,GI50,[40],5.4 µM
same,TGI,[40],21.1 µM
same,GI50,[41],11.3 µM
same,TGI,[41],30.2 µM
same,GI50,[42],15.1 µM
same,TGI,[42],87.8 µM
same,GI50,[43],9.09 µM
same,TGI,[43],22.9 µM
same,GI50,[44],15.1 µM
same,TGI,[44],35.5 µM
same,GI50,[45],11.4 µM
same,TGI,[45],24.5 µM
same,GI50,[46],23.3 µM
same,TGI,[46],65.8 µM
same,GI50,[47],23.7 µM
same,TGI,[47],70.3 µM
same,GI50,[48],5.31 µM
same,TGI,[48],18.4 µM
same,GI50,[49],17.1 µM
same,TGI,[49],38.4 µM
same,GI50,[50],4.17 µM
same,TGI,[50],20 µM
same,GI50,[51],4.5 µM
same,TGI,[51],17.3 µM
same,GI50,[52],30.1 µM
same,TGI,[52],> 100 µM
same,GI50,[53],6.93 µM
same,TGI,[53],21.2 µM
same,GI50,[54],6.34 µM
same,TGI,[54],22.5 µM
COc1ccc(S(=O)(=O)Nc2cc(/C=C\c3cc(OC)c(OC)c(OC)c3)cc(OC)c2OC)cc1OC,GI50,[1],0.444 µM
same,TGI,[1],> 100 µM
same,GI50,[2],0.154 µM
same,TGI,[2],0.906 µM
same,GI50,[3],1.31 µM
same,TGI,[3],> 100 µM
same,GI50,[4],0.928 µM
same,TGI,[4],> 100 µM
same,GI50,[5],0.664 µM
same,TGI,[5],90.1 µM
same,GI50,[6],0.813 µM
same,TGI,[6],> 100 µM
same,GI50,[7],0.349 µM
same,TGI,[7],> 100 µM
same,GI50,[8],1.28 µM
same,TGI,[8],> 100 µM
same,GI50,[9],0.841 µM
same,TGI,[9],> 100 µM
same,GI50,[10],3.6 µM
same,TGI,[10],> 100 µM
same,GI50,[11],1.83 µM
same,TGI,[11],> 100 µM
same,GI50,[12],0.469 µM
same,TGI,[12],> 100 µM
same,GI50,[13],0.671 µM
same,TGI,[13],> 100 µM
same,GI50,[55],0.37 µM
same,TGI,[55],> 100 µM
same,GI50,[14],17.6 µM
same,TGI,[14],> 100 µM
same,GI50,[15],0.207 µM
same,TGI,[15],67.5 µM
same,GI50,[56],3.42 µM
same,TGI,[56],> 100 µM
same,GI50,[16],0.485 µM
same,TGI,[16],> 100 µM
same,GI50,[17],4.58 µM
same,TGI,[17],> 100 µM
same,GI50,[18],0.425 µM
same,TGI,[18],> 100 µM
same,GI50,[19],0.639 µM
same,TGI,[19],> 100 µM
same,GI50,[20],0.472 µM
same,TGI,[20],> 100 µM
same,GI50,[21],0.419 µM
same,TGI,[21],> 100 µM
same,GI50,[23],0.484 µM
same,TGI,[23],> 100 µM
same,GI50,[24],2.43 µM
same,TGI,[24],> 100 µM
same,GI50,[26],0.702 µM
same,TGI,[26],> 100 µM
same,GI50,[27],1.87 µM
same,TGI,[27],> 100 µM
same,GI50,[28],3.31 µM
same,TGI,[28],> 100 µM
same,GI50,[29],0.399 µM
same,TGI,[29],> 100 µM
same,GI50,[30],0.369 µM
same,TGI,[30],> 100 µM
same,GI50,[32],0.418 µM
same,TGI,[32],> 100 µM
same,GI50,[33],3.12 µM
same,TGI,[33],> 100 µM
same,GI50,[34],6.57 µM
same,TGI,[34],> 100 µM
same,GI50,[35],4.08 µM
same,TGI,[35],> 100 µM
same,GI50,[36],0.374 µM
same,TGI,[36],> 100 µM
same,GI50,[57],0.567 µM
same,TGI,[57],> 100 µM
same,GI50,[37],0.683 µM
same,TGI,[37],4.55 µM
same,GI50,[38],20.8 µM
same,TGI,[38],> 100 µM
same,GI50,[39],0.47 µM
same,TGI,[39],55.6 µM
same,GI50,[40],0.518 µM
same,TGI,[40],28.6 µM
same,GI50,[41],5.29 µM
same,TGI,[41],> 100 µM
same,GI50,[42],3.27 µM
same,TGI,[42],61.3 µM
same,GI50,[43],0.488 µM
same,TGI,[43],13.1 µM
same,GI50,[44],11.4 µM
same,TGI,[44],> 100 µM
same,GI50,[45],1.18 µM
same,TGI,[45],> 100 µM
same,GI50,[46],1.11 µM
same,TGI,[46],> 100 µM
same,GI50,[47],0.404 µM
same,TGI,[47],> 100 µM
same,GI50,[58],0.704 µM
same,TGI,[58],> 100 µM
same,GI50,[48],0.478 µM
same,TGI,[48],> 100 µM
same,GI50,[49],27.2 µM
same,TGI,[49],> 100 µM
same,GI50,[50],10.3 µM
same,TGI,[50],> 100 µM
same,GI50,[51],0.681 µM
same,TGI,[51],> 100 µM
same,GI50,[52],27 µM
same,TGI,[52],> 100 µM
same,GI50,[53],0.494 µM
same,TGI,[53],> 100 µM
same,GI50,[54],1.59 µM
same,TGI,[54],> 100 µM
